Measured values: US4563306A, “Peptides and process for preparing the same” (Tanabe Seiyaku Co., Ltd., priority 1983, dated 1986)

Tests used:
Format in all cases: in vivo
Serum TSH levels = assay: TSH-releasing activity (serum TSH by double-antibody radioimmunoassay after i.v. administration); conditions: male JCL: SD rats, intravenous, serum TSH 15 minutes after administration; parallel line assay, TRH = 1
Experimental: (1) TSH-releasing activity:
A test compound dissolved in a 0.1% BSA (bovine serum albumin)-containing physiological saline was intravenously administered to a group of five male JCL: SD rats. Fifteen minutes after the administration, blood was taken from the abdominal aorta under anesthesia. Serum TSH levels were determined by the double-antibody radioimmunoassay method (Midgley et al., Endocrinology., 79, 10 (1966)). The BSA-containing physiological saline was used for control instead of the test compound solution.

male STD/ddy mice [1] = assay: Antagonistic effect on reserpine-induced hypothermia; conditions: intraperitoneal, rectal temperature 30, 60, 120 and 180 minutes after administration, parallel line assay, TRH = 1
Experimental: (4) Antagonistic effect on reserpine-induced hypothermia:
A test compound dissolved in physiological saline was intraperitoneally administered to a group of five male STD/ddy mice, and the rectal temperature was measured 30, 60, 120 and 180 minutes after the administration of the test compound. The increase in temperature in the treated group was compared to that in the control group which received physiological saline instead of the test compound solution.

male STD/ddy mice [2] = assay: Antagonistic effect on pentobarbital anesthesia; conditions: pentobarbital sodium 55 mg/kg i.p., test compound intravenous 10 minutes later, duration of anesthesia, parallel line assay, TRH = 1
Experimental: (2) Antagonistic effect on pentobarbital anesthesia:
Pentobarbital sodium was intraperitoneally administered to a group of ten male STD/ddy mice at a dose of 55 mg/kg. Ten minutes after the administration of pentobarbital sodium, a test compound dissolved in physiological saline was intravenously administered to the mice which had lost the righting reflex. The duration of anesthesia was measured as the time from the end of administration of the test compound until the righting reflex regained. Physiological saline was used for control instead of the test compound solution (Prange et al., Life Science, 14, 447-455, (1974)).

male STD/ddy mice [3] = assay: Potentiating effect on methamphetamine-induced hyperlocomotion; conditions: methamphetamine 0.2 mg/kg and test compound intraperitoneally at the same time, locomotor activity for 60 minutes, parallel line assay, TRH = 1
Experimental: (5) Potentiating effect on methamphetamine-induced hyperlocomotion:
A group of ten male STD/ddY mice were individually placed in Ambulometer for 30 minutes to acclimatize to the apparatus.

male STD/ddy mice [4] = assay: Increasing effect on spontaneous locomotor activity (Ambulometer); conditions: intraperitoneal, activity measured for 60 minutes, parallel line assay, TRH = 1
Experimental: (3) Increasing effect on spontaneous locomotor activity:
A group of five male STD/ddY mice were individually placed in Ambulometer (i.e., an apparatus for measuring spontaneous locomotor activity; manufactured by OHARA IKA Co.) for 30 minutes to acclimatize to the apparatus. Thereafter, a test compound dissolved in physiological saline was intraperitoneally administered to the mice and, immediately after administration of the test compound, the spontaneous locomotor activity was measured for 60 minutes. Physiological saline was used for control instead of the test compound solution.

Row | SMILES | TSH-releasing activity, potency ratio relative to TRH (Serum TSH levels) | Antagonistic effect on reserpine-induced hypothermia, potency ratio relative to TRH (male STD/ddy mice [1]) | Antagonistic effect on pentobarbital anesthesia, potency ratio relative to TRH (male STD/ddy mice [2]) | Potentiating effect on action of methamphetamine, potency ratio relative to TRH (male STD/ddy mice [3]) | Increasing effect on spontaneous locomotor activity, potency ratio relative to TRH (male STD/ddy mice [4])
1 | NC(=O)[C@@H]1CCCN1C(=O)[C@H](Cc1c[nH]cn1)NC(=O)[C@@H]1Cc2ccccc2C(=O)N1 [N^α -[(3 S)-1-oxo-1,2,3,4-tetrahydroisoquinoline-3-carbonyl]-L-histidyl-L-prolinamide] | 1 | 10 | 10 | 10 | 10
2 | NC(=O)[C@@H]1CCCN1C(=O)[C@H](Cc1c[nH]cn1)NC(=O)[C@@H]1CCC(=O)N1 [TRH, L-pyroglutamyl-L-histidyl-L-prolinamide] | 1 | 1 | 1 | 1 | 1
